Assay results: ChEMBL document CHEMBL1201862, “PubChem BioAssay data set” (2004)
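Where inhibition never reached the appropriate level, the endpoint shown equals the highest concentration tested. Otherwise, values were interpolated linearly from a five-concentration, 48-hour dose response in 96-well plates. Here, GI50 denotes the concentration required for 50% inhibition of growth.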 Active and inactive are the calls of the source. Cut-off read from the data, not from the text of the source: active = GI50 up to about 1.1 µM and inactive = higher.

Legend:
Test in all cases: NCI anticancer screen, dose series, 48 h
[1] = test system: 786-0
[2] = test system: A498
[3] = test system: DU-145
[4] = test system: HL-60
[5] = test system: HOP-92
[6] = test system: HT-29
[7] = test system: LOX IMVI
[8] = test system: M14
[9] = test system: MDA-MB-231
[10] = test system: MDA-MB-435
[11] = test system: NCI-H226
[12] = test system: NCI-H460
[13] = test system: NCI-H522
[14] = test system: OVCAR-5
[15] = test system: RXF 393
[16] = test system: SF-295
[17] = test system: SF-539
[18] = test system: SW-620
[19] = test system: SK-OV-3
[20] = test system: BT-549

Measured: GI50

O=C1c2cccc3cc([N+](=O)[O-])cc(c23)C(=O)N1c1ccc(OCCN2CCCC2)cc1
inactive: [1] 10.6 µM | [2] 12.4 µM | [3] 23.3 µM | [4] 10.8 µM | [5] 24.3 µM | [6] 11.7 µM | [7] 10.8 µM | [8] 20 µM | [9] 43.2 µM | [10] 19.4 µM | [11] 9.35 µM | [12] 3.26 µM | [13] 10.8 µM | [14] 19.4 µM | [15] 17.9 µM | [16] 20.8 µM | [17] 13.3 µM | [18] 17.2 µM

COc1ccccc1/C=C\C(=O)C1COCN1 (configuration not stated)
inactive: [1] 23.9 µM | [3] 17.3 µM | [4] 19 µM | [6] 6.35 µM | [7] 4.83 µM | [8] 50.8 µM | [9] 17.6 µM | [10] 6.9 µM | [11] 18.7 µM | [12] 30.9 µM | [13] 16 µM | [14] 24.7 µM | [15] 21 µM | [16] 26.1 µM | [17] 20.5 µM | [19] 10.2 µM | [18] 4.36 µM

O=C(O)CC(NC(=O)/C(=C/c1ccccc1O)NC(=O)c1ccccc1)C(=O)O (configuration not stated)
inactive: [1] > 100 µM | [2] 50.5 µM | [20] 57 µM | [4] 25.8 µM | [6] 80.7 µM | [7] > 100 µM | [8] > 100 µM | [9] > 100 µM | [10] 85.9 µM | [11] > 100 µM | [13] 65.5 µM | [14] > 100 µM | [16] > 100 µM | [17] > 100 µM | [19] > 100 µM | [18] > 100 µM

COc1cc2c(c(OC)c1OC)C(=O)[C@H]1OC(=O)N[C@@H]21
inactive: [1] > 100 µM | [2] > 100 µM | [3] > 100 µM | [4] > 100 µM | [5] > 100 µM | [6] > 100 µM | [7] > 100 µM | [8] > 100 µM | [9] > 100 µM | [10] > 100 µM | [11] > 100 µM | [14] > 100 µM | [15] > 100 µM | [16] > 100 µM | [17] > 100 µM | [19] > 100 µM | [18] > 100 µM

CC(=O)c1c2c(cc3c1CC1(C3)Cc3cc4c(c(C(=O)O)c3C1)CCCC4)CCCC2.CC(N)c1ccccc1 (configuration not stated)
inactive: [1] 34.4 µM | [3] 49 µM | [4] 25.5 µM | [5] 15.4 µM | [6] 34.1 µM | [7] 35.5 µM | [8] 28.8 µM | [9] 10 µM | [10] 54.8 µM | [12] 20.2 µM | [13] 46.1 µM | [14] 28.5 µM | [16] 33.7 µM | [19] 39.5 µM | [18] 45.4 µM

CCOC(=O)Nn1cnnc1Cc1ccccc1
inactive: [1] > 100 µM | [2] > 100 µM | [20] > 100 µM | [5] > 100 µM | [6] > 100 µM | [7] > 100 µM | [8] > 100 µM | [9] > 100 µM | [10] > 100 µM | [11] > 100 µM | [12] > 100 µM | [13] > 100 µM | [14] > 100 µM | [16] > 100 µM | [17] > 100 µM | [19] > 100 µM | [18] > 100 µM

CC(C)=C/C(CC(O)(C(F)(F)F)C(F)(F)F)=N\O
inactive: [1] > 100 µM | [2] 50.9 µM | [3] > 100 µM | [4] > 100 µM | [5] > 100 µM | [6] > 100 µM | [7] > 100 µM | [8] > 100 µM | [9] > 100 µM | [10] > 100 µM | [11] > 100 µM | [12] > 100 µM | [14] > 100 µM | [15] > 100 µM | [16] > 100 µM | [17] > 100 µM | [19] > 100 µM | [18] > 100 µM

C=C(C)CCC1C=[N+]([O-])OC(C)(C)C1(C)C (configuration not stated)
inactive: [1] > 100 µM | [2] > 100 µM | [3] > 100 µM | [4] 30.1 µM | [5] > 100 µM | [6] > 100 µM | [7] 80 µM | [8] > 100 µM | [9] > 100 µM | [10] > 100 µM | [11] > 100 µM | [12] > 100 µM | [13] > 100 µM | [14] > 100 µM | [15] > 100 µM | [16] > 100 µM | [17] > 100 µM | [19] > 100 µM | [18] 39 µM
